Test results from PMC12207908, “The broad‐spectrum antimicrobial peptide BMAP‐27B potentiates carbapenems against NDM‐producing pathogens in food animals” (mLife, 2025).

Tests used:
Test in all cases: MIC, broth microdilution
Format in all cases: cell-based
[1] = test system: CRCB1; conditions: Citrobacter, MHB, 1 × 10^6 CFU/ml, 16–18 h, 37°C, independent triplicates
Method: (§1) The MIC of BMAP‐27B and other antibiotics was determined using the broth microdilution method, following the guidelines established by the Clinical and Laboratory Standards Institute (CLSI). Briefly, the bacterial cultures were grown to the logarithmic growth phase and subsequently diluted in Mueller–Hinton broth (MHB) to achieve a final concentration of 1 × 10^6 CFU/ml. BMAP‐27B and the other antibiotics were prepared in twofold serial dilutions in MHB and mixed with an equal volume of bacterial suspension in 96‐well polypropylene microtiter plates.

[2] = test system: CRAB1; conditions: Acinetobacter baumannii, MHB, 1 × 10^6 CFU/ml, 16–18 h, 37°C, independent triplicates
Method: as §1

[3] = test system: En. faecium (Clinical; MDR; pig, faeces), lower row; conditions: Enterococcus faecium, En. faecium clinical MDR isolate, MHB, 16–18 h, 37°C, independent triplicates
Method: as §1

[4] = test system: PREC1; conditions: Escherichia coli, MHB, 1 × 10^6 CFU/ml, 16–18 h, 37°C, independent triplicates
Method: as §1

[5] = test system: CRCB3; conditions: Citrobacter, MHB, 1 × 10^6 CFU/ml, 16–18 h, 37°C, independent triplicates
Method: as §1

[6] = test system: CREC1; conditions: Escherichia coli, MHB, 1 × 10^6 CFU/ml, 16–18 h, 37°C, independent triplicates
Method: as §1

[7] = test system: CREC5; conditions: Escherichia coli, MHB, 1 × 10^6 CFU/ml, 16–18 h, 37°C, independent triplicates
Method: as §1

[8] = test system: CRAB2; conditions: Acinetobacter baumannii, MHB, 1 × 10^6 CFU/ml, 16–18 h, 37°C, independent triplicates
Method: as §1

[9] = test system: P. aeruginosa UCBPP-PA01; conditions: Pseudomonas aeruginosa, UCBPPPA01, MHB, 1 × 10^6 CFU/ml, 16–18 h, 37°C, independent triplicates
Method: as §1

[10] = test system: CRKP4; conditions: Klebsiella pneumoniae, MHB, 1 × 10^6 CFU/ml, 16–18 h, 37°C, independent triplicates
Method: as §1

[11] = test system: CRCB2; conditions: Citrobacter, MHB, 1 × 10^6 CFU/ml, 16–18 h, 37°C, independent triplicates
Method: as §1

[12] = test system: CRKP1; conditions: Klebsiella pneumoniae, MHB, 1 × 10^6 CFU/ml, 16–18 h, 37°C, independent triplicates
Method: as §1

[13] = test system: CREC2; conditions: Escherichia coli, MHB, 1 × 10^6 CFU/ml, 16–18 h, 37°C, independent triplicates
Method: as §1

[14] = test system: CRKP3; conditions: Klebsiella pneumoniae, MHB, 1 × 10^6 CFU/ml, 16–18 h, 37°C, independent triplicates
Method: as §1

[15] = test system: CREC6; conditions: Escherichia coli, MHB, 1 × 10^6 CFU/ml, 16–18 h, 37°C, independent triplicates
Method: as §1

[16] = test system: S. aureus ATCC; conditions: Staphylococcus aureus, MHB, 1 × 10^6 CFU/ml, 16–18 h, 37°C, independent triplicates
Method: as §1

[17] = test system: CRKP2; conditions: Klebsiella pneumoniae, MHB, 1 × 10^6 CFU/ml, 16–18 h, 37°C, independent triplicates
Method: as §1

[18] = test system: CREC4; conditions: Escherichia coli, MHB, 1 × 10^6 CFU/ml, 16–18 h, 37°C, independent triplicates
Method: as §1

[19] = test system: CRKP6; conditions: Klebsiella pneumoniae, MHB, 1 × 10^6 CFU/ml, 16–18 h, 37°C, independent triplicates
Method: as §1

[20] = test system: En. faecium (Clinical; MDR; pig, faeces), upper row; conditions: Enterococcus faecium, En. faecium clinical MDR isolate, MHB, 16–18 h, 37°C, independent triplicates
Method: as §1

[21] = test system: PRCB1; conditions: Citrobacter, MHB, 1 × 10^6 CFU/ml, 16–18 h, 37°C, independent triplicates
Method: as §1

[22] = test system: CREC7; conditions: Escherichia coli, MHB, 1 × 10^6 CFU/ml, 16–18 h, 37°C, independent triplicates
Method: as §1

[23] = test system: Salmonella SL1344; conditions: MHB, 1 × 10^6 CFU/ml, 16–18 h, 37°C, independent triplicates
Method: as §1

[24] = test system: CREC3; conditions: Escherichia coli, MHB, 1 × 10^6 CFU/ml, 16–18 h, 37°C, independent triplicates
Method: as §1

[25] = test system: PREC2; conditions: Escherichia coli, MHB, 1 × 10^6 CFU/ml, 16–18 h, 37°C, independent triplicates
Method: as §1

[26] = test system: P. aeruginosa UCBPP-PA14; conditions: Pseudomonas aeruginosa, MHB, 1 × 10^6 CFU/ml, 16–18 h, 37°C, independent triplicates
Method: as §1

[27] = test system: CRKP5; conditions: Klebsiella pneumoniae, MHB, 1 × 10^6 CFU/ml, 16–18 h, 37°C, independent triplicates
Method: as §1

[28] = test system: PREC3; conditions: Escherichia coli, MHB, 1 × 10^6 CFU/ml, 16–18 h, 37°C, independent triplicates
Method: as §1

Measured: MIC

CN(C)[C@@H]1C(O)=C(C(N)=O)C(=O)[C@@]2(O)C(O)=C3C(=O)c4c(O)cccc4[C@@](C)(O)[C@H]3C[C@@H]12 [TET, tetracycline]
16 µg/mL: [9] | [26]
4 µg/mL: [23]
32 µg/mL: [19]
< 1 µg/mL: [16]
> 32 µg/mL: all other assays above

C[C@@H](O)[C@H]1C(=O)N2C(C(=O)O)=C(SCCN=CN)C[C@H]12 [IMP, imipenem]
8 µg/mL: [5]
< 1 µg/mL: [4] | [9] | [16] | [21] | [23] | [25] | [28]
16 µg/mL: [10]
32 µg/mL: [7] | [11] | [12] | [15] | [17] | [22] | [24]
4 µg/mL: [19] | [26] | [27]
> 32 µg/mL: all other assays above

CC(C)(O/N=C(\C(=O)N[C@@H]1C(=O)N2C(C(=O)[O-])=C(C[n+]3ccccc3)CS[C@H]12)c1csc(N)n1)C(=O)O [CAZ, ceftazidime]
4 µg/mL: [16]
16 µg/mL: [28]
< 1 µg/mL: [23]
2 µg/mL: [9] | [26]
> 32 µg/mL: all other assays above

NCC[C@H](O)C(=O)N[C@@H]1C[C@H](N)[C@@H](O[C@H]2O[C@H](CN)[C@@H](O)[C@H](O)[C@H]2O)[C@H](O)[C@H]1O[C@H]1O[C@H](CO)[C@@H](O)[C@H](N)[C@H]1O [AMK, amikacin]
8 µg/mL: [5] | [16] | [25]
16 µg/mL: [15] | [20]
2 µg/mL: [4] | [6] | [9] | [22] | [24] | [28]
4 µg/mL: [1] | [13] | [18]
> 32 µg/mL: [2] | [8]

CC1(C)S[C@@H]2[C@H](NC(=O)[C@H](N)c3ccccc3)C(=O)N2[C@H]1C(=O)O [AMP, ampicillin]
8 µg/mL: [23]
32 µg/mL: [20]
4 µg/mL: [16]
> 32 µg/mL: all other assays above

CNC(C)C1CCC(N)C(OC2C(N)CC(N)C(OC3OCC(C)(O)C(NC)C3O)C2O)O1 (centres unmarked) [GEN, gentamicin]
8 µg/mL: [20]
32 µg/mL: [3]
2 µg/mL: [16] | [26] | [28]
4 µg/mL: [23]
> 32 µg/mL: [2] | [4] | [6] | [8] | [13] | [15] | [18] | [24] | [25]
